Values belong to the compound of their own block, whether it stands above or below them.
Tested on: 931267-113-T-J1-PDC multicell spheroid viability
Assay: Anticancer human tumor 931267-113-T-J1-PDC patient-derived colon adenocarcinoma cell line growth inhibition [PI3K]
Details: for IC50: curve of first compound; for viability, T/C: stronger effect = lower value
In short: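 Targeted small molecules plus PI3K inhibitors, half-log dose series from Cmax (default top 10 microM), were applied to heterotypic spheroids of cancer cells with HUVEC and MSCs. Viability indicated growth inhibition.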
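Further: viability read 7 days after compound addition.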

IC50 (second compound 0.00316 µM): > 10000 nM
IC50 (second compound 0.01 µM): > 10000 nM
IC50 (second compound 0.0316 µM): > 10000 nM
IC50 (second compound 0.1 µM): 4050 nM
IC50 (second compound 0.316 µM): 1320 nM
IC50 (second compound 1 µM): < 31.6 nM
Compound: C[C@@H](NC(=O)c1ncnc(N)c1Cl)c1ncc(C(=O)Nc2cc(C(F)(F)F)c(Cl)cn2)s1 + COc1c(OCCCN2CCOCC2)ccc2c3n(c(=NC(=O)c4cnc(N)nc4)nc12)CCN3
viability, T/C (second compound 0.00316 µM, first compound 0.0316 µM): 109%
viability, T/C (second compound 0.00316 µM, first compound 0.1 µM): 117%
viability, T/C (second compound 0.00316 µM, first compound 0.316 µM): 106%
viability, T/C (second compound 0.00316 µM, first compound 1 µM): 111%
viability, T/C (second compound 0.00316 µM, first compound 3.16 µM): 105%
viability, T/C (second compound 0.00316 µM, first compound 10 µM): 76%
viability, T/C (second compound 0.01 µM, first compound 0.0316 µM): 108%
viability, T/C (second compound 0.01 µM, first compound 0.1 µM): 102%
viability, T/C (second compound 0.01 µM, first compound 0.316 µM): 104%
viability, T/C (second compound 0.01 µM, first compound 1 µM): 115%
viability, T/C (second compound 0.01 µM, first compound 3.16 µM): 96.5%
viability, T/C (second compound 0.01 µM, first compound 10 µM): 74.2%
viability, T/C (second compound 0.0316 µM, first compound 0.0316 µM): 95.3%
viability, T/C (second compound 0.0316 µM, first compound 0.1 µM): 94.4%
viability, T/C (second compound 0.0316 µM, first compound 0.316 µM): 94.7%
viability, T/C (second compound 0.0316 µM, first compound 1 µM): 92.1%
viability, T/C (second compound 0.0316 µM, first compound 3.16 µM): 76.6%
viability, T/C (second compound 0.0316 µM, first compound 10 µM): 51%
viability, T/C (second compound 0.1 µM, first compound 0.0316 µM): 86.5%
viability, T/C (second compound 0.1 µM, first compound 0.1 µM): 75.8%
viability, T/C (second compound 0.1 µM, first compound 0.316 µM): 76.6%
viability, T/C (second compound 0.1 µM, first compound 1 µM): 65%
viability, T/C (second compound 0.1 µM, first compound 3.16 µM): 57.2%
viability, T/C (second compound 0.1 µM, first compound 10 µM): 33.7%
viability, T/C (second compound 0.316 µM, first compound 0.0316 µM): 58.9%
viability, T/C (second compound 0.316 µM, first compound 0.1 µM): 58.8%
viability, T/C (second compound 0.316 µM, first compound 0.316 µM): 59.4%
viability, T/C (second compound 0.316 µM, first compound 1 µM): 51.4%
viability, T/C (second compound 0.316 µM, first compound 3.16 µM): 41.8%
viability, T/C (second compound 0.316 µM, first compound 10 µM): 25.1%
viability, T/C (second compound 1 µM, first compound 0.0316 µM): 45.4%
viability, T/C (second compound 1 µM, first compound 0.1 µM): 41%
viability, T/C (second compound 1 µM, first compound 0.316 µM): 42.6%
viability, T/C (second compound 1 µM, first compound 1 µM): 35.2%
viability, T/C (second compound 1 µM, first compound 3.16 µM): 32.1%
viability, T/C (second compound 1 µM, first compound 10 µM): 18.5%

IC50 (second compound 0.00316 µM): 119 nM
IC50 (second compound 0.01 µM): 99.7 nM
IC50 (second compound 0.0316 µM): 80.1 nM
IC50 (second compound 0.1 µM): 54.6 nM
IC50 (second compound 0.316 µM): 36.4 nM
IC50 (second compound 1 µM): 19.8 nM
Compound: Cn1cnc2c(F)c(Nc3ccc(Br)cc3Cl)c(C(=O)NOCCO)cc21 + CC(Nc1ccc2c(c1)OCCn1cc(N3C(=O)OCC3C(F)F)nc1-2)C(N)=O
viability, T/C (second compound 0.00316 µM, first compound 0.00949 µM): 69.8%
viability, T/C (second compound 0.00316 µM, first compound 0.03 µM): 71.2%
viability, T/C (second compound 0.00316 µM, first compound 0.0949 µM): 52.1%
viability, T/C (second compound 0.00316 µM, first compound 0.3 µM): 33.3%
viability, T/C (second compound 0.00316 µM, first compound 0.949 µM): 21.4%
viability, T/C (second compound 0.00316 µM, first compound 3 µM): 11.4%
viability, T/C (second compound 0.01 µM, first compound 0.00949 µM): 91.1%
viability, T/C (second compound 0.01 µM, first compound 0.03 µM): 74.7%
viability, T/C (second compound 0.01 µM, first compound 0.0949 µM): 50%
viability, T/C (second compound 0.01 µM, first compound 0.3 µM): 31%
viability, T/C (second compound 0.01 µM, first compound 0.949 µM): 15.3%
viability, T/C (second compound 0.01 µM, first compound 3 µM): 10.8%
viability, T/C (second compound 0.0316 µM, first compound 0.00949 µM): 89.6%
viability, T/C (second compound 0.0316 µM, first compound 0.03 µM): 69.5%
viability, T/C (second compound 0.0316 µM, first compound 0.0949 µM): 47.9%
viability, T/C (second compound 0.0316 µM, first compound 0.3 µM): 25.2%
viability, T/C (second compound 0.0316 µM, first compound 0.949 µM): 15.2%
viability, T/C (second compound 0.0316 µM, first compound 3 µM): 9.45%
viability, T/C (second compound 0.1 µM, first compound 0.00949 µM): 75.9%
viability, T/C (second compound 0.1 µM, first compound 0.03 µM): 61.8%
viability, T/C (second compound 0.1 µM, first compound 0.0949 µM): 39.3%
viability, T/C (second compound 0.1 µM, first compound 0.3 µM): 21.3%
viability, T/C (second compound 0.1 µM, first compound 0.949 µM): 15.2%
viability, T/C (second compound 0.1 µM, first compound 3 µM): 8.34%
viability, T/C (second compound 0.316 µM, first compound 0.00949 µM): 78.3%
viability, T/C (second compound 0.316 µM, first compound 0.03 µM): 53.9%
viability, T/C (second compound 0.316 µM, first compound 0.0949 µM): 31.3%
viability, T/C (second compound 0.316 µM, first compound 0.3 µM): 17.2%
viability, T/C (second compound 0.316 µM, first compound 0.949 µM): 10.9%
viability, T/C (second compound 0.316 µM, first compound 3 µM): 6.16%
viability, T/C (second compound 1 µM, first compound 0.00949 µM): 63.1%
viability, T/C (second compound 1 µM, first compound 0.03 µM): 42%
viability, T/C (second compound 1 µM, first compound 0.0949 µM): 28.7%
viability, T/C (second compound 1 µM, first compound 0.3 µM): 15.9%
viability, T/C (second compound 1 µM, first compound 0.949 µM): 10.3%
viability, T/C (second compound 1 µM, first compound 3 µM): 4.28%

— PubChem BioAssay AID1963970 (Molecular Pharmacology Branch, DTP, NCI, 2024)
